Results reported in patent US7166297B2, “Lipid-based drug delivery systems against parasitic infections” (LiPlasome Pharma A/S, priority 2000, dated 2007).

Key:
[1] = system: human red blood cells (RBC); test: Hemolysis assay; conditions: low concentrations, 37° C., 20 hours
Description: Briefly, each sample was serially diluted with phosphate buffered saline (PBS), and 0.5 ml of each dilute suspension was mixed with 0.5 ml washed human red blood cells (RBC) [4% in PBS (v/v)]. Sample and standard were placed in a 37° C. incubator and agitated for 20 hours. Tubes were centrifuged at low speed (2000×G) for 10 minutes and 200 μl of the supernatant was quantitated by absorbance at 550 nm. 100 percent hemolysis was defined as the maximum amount of hemolysis obtained from the detergent Triton X-100.
The lipids were hydrated in phosphate buffered saline (PBS). 1-O-octadecyl-2-O-methyl-sn-glycero-3-phosphocholine (ET-18-OCH3) in PBS was included in the assay as a reference.
Briefly, each sample was serially diluted with PBS, and 0.5 ml of each dilute suspension of 1-O-DPPC liposomes were mixed with 0.5 ml washed human red blood cells (RBC) [4% in PBS (v/v)]. For controls, 0.5 ml of the red blood cell suspension was mixed with either 0.5 ml buffer solution (negative hemolysis control) or 0.5 ml water (positive hemolysis control). Samples and standard were placed in a 37° C. incubator and agitated for 20 hours. Tubes were centrifuged at low speed (2000×G) for 10 minutes to form RBCs pellets. 200 μl of the supernatant was quantified by absorbance at 550 nm using a Perkin-Elmer 320 scanning spectrophotometer. […]

[2] = target: T1, Snake venom PLA2 (Agkistrodon piscivorus piscivorus) (Agkistrodon piscivorus piscivorus, UniProt P51972); test: Model system: PLA2-controlled calcein release across D-O-SPC target membrane with DPPC carrier liposomes; type: biochemical
T1 construct: Purified snake venom PLA2 (Agkistrodon piscivorus piscivorus) was a generous gift from dr; R. L. Biltonen; tissue gift from dr; host or cells: snake venom of Agkistrodon piscivorus piscivorus
T1 sequence (P51972 1-123): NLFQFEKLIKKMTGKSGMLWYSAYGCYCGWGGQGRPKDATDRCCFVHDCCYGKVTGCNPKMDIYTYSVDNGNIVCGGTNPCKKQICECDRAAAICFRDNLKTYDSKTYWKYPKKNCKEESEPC
Description: The temperature is 37° C. […] The percentage of calcein released is determined as % Release=100 (IF(t)−IB)/(IT−IB), where IF(t) is the measured fluorescence at time t after addition of the enzyme, IB is the background fluorescence, and IT is the total fluorescence measured after addition of Triton X-100 which leads to complete release of calcein by breaking up the target liposomes. […] The concentration of the target and carrier liposomes are 25 μM, and PLA2 is added in a 25 nM concentration in a HEPES buffer with pH=7.5.
The experimental model system consists of a negatively charged liposome carrier and a model target membrane. The carrier is a 100 nm unilamellar liposome made of dipalmitoyl phosphatidylcholine lipids (DPPC) with a small amount (2.5 mol %) of negatively charged lipid of the type dipaimitoyl phosphatidylethanolamine (DPPE)-PEG2000. The target membrane is another liposome made of 1,2-O-dioctadecyl-sn-glycero-phosphatidylcholine (D-O-SPC) which is a phospholipid where the acyl linkages of the stearoyl chains are ether bonds. In contrast to DPPC, D-O-SPC is inert towards PLA2-catalysed hydrolysis thereby mimicking the stability of an intact target cell membrane toward degradation by its own enzymes. […] The permeation of calcein across the D-O-SPC target membrane is subsequently monitored by the increase in fluorescence. […]

[3] = Calcein release across target membrane on adding lyso-phospholipid and fatty acid in the absence of PLA2; conditions: 25 μM target membranes, pH=7.5, 39° C.
Description: FIG. 13. […] The concentration of the target membranes is 25 μM in a HEPES buffer with pH=7.5 at a temperature of 39° C.
The experimental model system consists of a negatively charged liposome carrier and a model target membrane. The carrier is a 100 nm unilamellar liposome made of dipalmitoyl phosphatidylcholine lipids (DPPC) with a small amount (2.5 mol %) of negatively charged lipid of the type dipaimitoyl phosphatidylethanolamine (DPPE)-PEG2000. The target membrane is another liposome made of 1,2-O-dioctadecyl-sn-glycero-phosphatidylcholine (D-O-SPC) which is a phospholipid where the acyl linkages of the stearoyl chains are ether bonds. In contrast to DPPC, D-O-SPC is inert towards PLA2-catalysed hydrolysis thereby mimicking the stability of an intact target cell membrane toward degradation by its own enzymes. This experimental assay, which permits simultaneous as well as separate investigation of the effect of destabilisers at the carrier liposomes and the effect of enhancers at the target membrane, involves entrapment of a water-soluble fluorescent calcein model drug in a self-quenching concentration, in the interior of the non-hydrolysable target liposome, rather than in the carrier liposome. […] The permeation of calcein across the D-O-SPC target membrane is subsequently monitored by the increase in fluorescence. […]

[4] = target: T2, phospholipase A2 (A. piscivorus piscivorus) (Agkistrodon piscivorus piscivorus, UniProt P51972)
T2 sequence (P51972 1-123): T1 sequence (P51972 1-123)
Description: HPLC chromatograms illustrating the effect of phospholipase A2 hydrolysis of micelles composed DSPE-PEG750 (0.150 mM). The chromatograms show the amount of stearic acid generated before (solid line) phospholipase A2 (A. piscivorus piscivorus) was added to the micelle suspension and the amount (dashed line) of DSPE-PEG750 after the lag-burst. The dotted line show pure stearic acid (0.4 mM). The percentage hydrolysis was calculated on basis of the integrated area of the stearic acid standard (115850 units) and the integrated area of the sample (45630 units).
The hydrolysis of micelles composed DSPE-PEG750 was followed by analysis of the amount of stearic acid generated. The catalytic reaction was initiated by adding 8.9 μL of a 42 μM PLA2 (150 nM) stock solution to 2.5 ml a thermostated lipid suspension of DSPE-PEG750 (0.150 mM) equilibrated at 45° C. for 600 seconds prior to addition of PLA2. The characteristic burst behavior of PLA2 towards the micelles is signaled by a sudden increase in the intrinsic fluorescence from PLA2 at 340 nm after excitation at 285 nm followed by a concomitant decrease in the 90° light scattering from the lipid suspension (Hønger et al., Biochemistry 35, 9003–9006). Samples for HPLC analysis of the amount of stearic acid generated were taken before adding PLA2 and 100 sec after the observed lag-time.

Compound: CCCCCCCCCCCCCCCCCCOC[C@H](COP(=O)([O-])OCC[N+](C)(C)C)OC [ET-18-OCH3]
- hemolysis (in words) [1]: significant degree of hemolysis

Compound: CC(C)CCC[C@@H](C)[C@H]1CC[C@H]2[C@@H]3CC=C4C[C@@H](O)CC[C@]4(C)[C@H]3CC[C@]12C [cholesterol]
- effect on extracellular PLA2 activity (in words) ([2]; ≈3 mol % incorporated into liposomes): activates
- effect on extracellular PLA2 activity (in words) ([2]; ≈20 mol % incorporated into liposomes, data not shown): deactivated

Compound: CCCCCCCCCCCCCCCC(=O)O [fatty acid, palmitic acid]
- rate of calcein release across target membrane (in words) [3]: increased rate of calcein release

Compound: di-octadecanoyl-sn-glycero-3-phosphoethanolamine-N-[methoxy(polyethylene glycol)-750 [DSPE-PEG750]
- percent hydrolysis of DSPE-PEG750 ([4]; 0.150 mM DSPE-PEG750, 150 nM PLA2, 45° C.): 100%
- lag time ([4]; 45° C., 150 nM PLA2): 10 s
